Drawing on US11458149B1, “TEAD inhibitors and uses thereof” (Ikena Oncology, Inc., priority 2019, dated 2022), this text covers EC50, AUC(0-t) and Cmax for one compound.

By pEC50 is commonly meant the negative decadic logarithm of the EC50, by convention in mol/L. Broadly, the AUC(0-t) is exposure summed from dosing to a finite time, without extrapolation to infinity. Low values mean less exposure, high ones more exposure. Broadly, the Cmax is the maximum level reached in the sampled fluid or tissue.

In one data set the test system is TEAD. Briefly: TEAD reporter assay (Hippo Pathway TEAD Reporter - MCF7 cell line, luciferase). Type of data set: cell-based, human. The settings on record: Homo sapiens, MCF7, TEAD Reporter - MCF7 cells; read-out: TEAD Reporter Assay EC50. An excerpt: TEAD inhibition can be assayed using Hippo Pathway TEAD Reporter—MCF7 Cell Line (BPS Bioscience, Catalog #: 60618).
The TEAD Reporter—MCF7 cell line contains the firefly luciferase gene under the control of TEAD responsive elements stably integrated into the human breast cancer cell line, MCF7. Inside the cells, basal unphosphorylated YAP/TAZ remains in the nucleus and induces the constitutive expression of luciferase reporter. The cell line is validated for the inhibition of the expression of luciferase reporter by the activators of the Hippo pathway.
• 1) Harvest TEAD Reporter—MCF7 cells from culture in growth medium and seed cells at a density of 35,000 cells per well into white clear-bottom 96-well microplate in 45 μl of assay medium. • 2) Incubate cells at 37° C. in a CO2 incubator for overnight. • 3) Dilute the activators (H2O2 or okadaic acid) stock in assay medium. Add 5 μl of diluted activators to the wells. The final concentration of DMSO in assay medium is 0.1%. • 4) Add 5 μl of assay medium with same concentration of DMSO without activator to control wells. • 5) Add 50 μl of assay medium with DMSO to cell-free control wells (for determining background luminescence). • 6) Set up each treatment in at least triplicate. • 7) Incubate cells at 37° C. in a CO2 incubator for 5-6 hours. • 8) Perform luciferase assay using the ONE-Step™ Luciferase Assay System following the protocol provided: Add 100 μl of ONE-Step™ Luciferase reagent per well and rock at room temperature for ˜15 minutes. Measure luminescence using a luminometer. • 9) Data Analysis: Obtain the background-subtracted luminescence by subtracting the average background luminescence (cell-free control wells) from the luminescence reading of all wells.
(§1) Certain compounds were tested in TEAD reporter assay, and in H226 and H28. A: EC50<0.1 uM; B: 0.1 uM≤EC50≤0.5 uM; C: EC50>0.5 uM.
On the technique in general: In a reporter assay the amount or activity of a reporter protein is the signal.

The test system of the next data set is H28. As to the kind of experiment: Anti-proliferation assay in H28 cells. Type of data set: cell-based. The settings on record: Homo sapiens, NCI-H28. As to the method:
as §1
(§2) Individual cell lines were grown in medium according to supplier instructions and seeded into 96-well plates at a density that ensured logarithmic growth over 72 hours. TEAD inhibitor compounds were administered to cells at a top concentration of 10 μm and subsequently a 10 point 3-fold serial dilution was conducted. After 72 hours, proliferation was quantified using Cell TITERGLO™ (Promega, Inc.) and compared to vehicle control. IC50 and EC50 values were generated using XLFit curve fitting software.
The effect of isomer 2 of compound I-12 on cell proliferation is dependent on the presence of a Hippo/NF2 mutation. No effect is seen by isomer 2 of compound I-12 on the NF2 wild-type H28 cell line.

The next data set deals with H226. As to the kind of experiment: Anti-proliferation assay in H226 cells. Type of data set: cell-based, human. The settings on record: Homo sapiens, NCI-H226, H226 cells; read-out: H226 EC50. As to the method: as §1, §2
The nature of data set [1]: Mouse pharmacokinetics study. Type of data set: in vivo. The settings on record: mouse, BALB/c mice, 10 mg/kg oral gavage, 5% DMS/95% PEG400, plasma. As to the method: Formulated compounds were administered intravenously or orally via gavage to BALB/c mice. Typically, at 0.167, 0.5, 1, 2, 4, 6, 12, and 24 hours post-dose, blood was collected and processed to plasma by centrifugation and stored at −80° C. until analysis. Internal standard was added to each sample prior to protein precipitation with acetonitrile or TCA. The precipitates were filtered through a filter plate and the samples were analyzed by LC/MS/MS. A standard curve was prepared in plasma from typically from 1.0 ng/mL to 3000 ng/mL and processed in the same manner as the samples. Sample analysis was typically performed on a suitable LC/MS/MS system fitted with an analytical UPLC column and compounds eluted from the analytical column with a gradient from 30-95% 0.1% formic acid (v/v) in ACN: 0.1% formic acid (v/v) in water. Mass spectrometric detection of test compound and the internal standard was performed by […] in positive mode. The pharmacokinetics of each compound were analyzed by Phoenix WinNonlin software (Pharsight, St. Louis, Mo.) via noncompartmental analysis. FIG. 4 depicts pharmacokinetic (PK) properties of isomer 1 of compound I-186 following dosing in BALB/c mice.

pEC50: −log10 of the molar value.

Regarding `C=CC(=O)NC1CCN(Cc2ccc(C(F)(F)F)cc2)CC1` [Compound I-46, N-[1-[[4-(Trifluoromethyl)phenyl]methyl]-4-piperidyl]prop-2-enamide], the figures for the pEC50 in the data set with TEAD, in the data set with H28 and in the data set on H226 were 6.30 to 7.00, less than 6.30 and 6.30 to 7.00, respectively. Moreover, the AUC(0-t) in data set [1] was 1.14 µg·h/mL. For the same compound, in data set [1] (read-out: Cmax), the Cmax was 0.735 µg/mL.
